These results are taken from PubChem BioAssay (NCI).

Several values for one entry are separate records, joined by “and”; a condition that tells them apart may be missing. Equal entries are not always repeated.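 Step 1: Grow cells in 96-well plates. Step 2: Expose to compound for 48 hours at 5 concentrations. Step 3: Interpolate endpoints linearly; if unreached, use highest concentration. GI50: concentration for 50% inhibition of growth. TGI denotes the concentration required for complete inhibition of growth.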

Test systems include CCRF-CEM leukemia; COLO 205 colon; BT-549 breast; SK-OV-3 ovarian; HS 578T breast; 786-0 renal; EKVX NSCLC; SF-539 CNS.
What all share (assay): NCI anticancer screen, dose series, 48 h

For `CCOc1ccccc1/C=N\N=C(N/N=C/c1ccccc1OCC)N/N=C/c1ccccc1OCC`, the GI50 was 3.21 µM in the experiment with CCRF-CEM leukemia; 1.43 µM in the experiment on COLO 205 colon; 2.67 µM in the experiment on BT-549 breast; 1.65 µM in the experiment on SK-OV-3 ovarian; 2.22 µM in the experiment with HS 578T breast; 2.71 µM with 786-0 renal. The figures for the GI50 in the experiment on EKVX NSCLC and in the experiment with SF-539 CNS were 3.04 µM and 2.41 µM, respectively. The TGI in the experiment on CCRF-CEM leukemia was over 100 µM; in the experiment with COLO 205 colon, 2.98 µM; in the experiment with BT-549 breast it was over 100 µM; in the experiment on SK-OV-3 ovarian it was 6.15 µM; in the experiment on HS 578T breast it was 8.39 µM; in the experiment with 786-0 renal, over 100 µM. Also, the TGI in the experiment with EKVX NSCLC and in the experiment with SF-539 CNS was over 100 µM each time.

For the molecule `CCOC(=O)c1c(NN2CCN(CC(F)(F)F)CC2)oc(/C=C2\C=Nc3ncccc32)c1O`, the GI50 with CCRF-CEM leukemia is 6.81 µM; with COLO 205 colon, 0.76 µM; in the experiment on BT-549 breast it was 1.59 µM; in the experiment on SK-OV-3 ovarian, 2.93 µM; in the experiment with HS 578T breast, 0.913 µM; in the experiment with 786-0 renal, 3.13 µM. Further, the GI50 was 11.1 µM in the experiment with EKVX NSCLC and 2.33 µM with SF-539 CNS. Moreover, the TGI in the experiment on CCRF-CEM leukemia was over 100 µM; with COLO 205 colon, 11.1 µM; with BT-549 breast, 5.68 µM; in the experiment on SK-OV-3 ovarian it was 19.8 µM; in the experiment on HS 578T breast it was 6.72 µM; with 786-0 renal it was 18.8 µM. Besides, the figures for the TGI with EKVX NSCLC and in the experiment with SF-539 CNS were 33.2 µM and 13.9 µM, respectively.

With `COc1ccc(-c2cnc(-c3ccc(OC)cc3)n2-c2cc(OC)c(OC)c(OC)c2)cc1`, the GI50 in the experiment on CCRF-CEM leukemia is over 100 µM; with COLO 205 colon, 56 µM; in the experiment with BT-549 breast, 28.6 µM; in the experiment with SK-OV-3 ovarian it was 23.1 µM; in the experiment with HS 578T breast, 22.9 µM; in the experiment on 786-0 renal, 24.2 µM. Moreover, the GI50 with EKVX NSCLC is 36.8 µM; in the experiment with SF-539 CNS, 23.9 µM. Moreover, the TGI was over 100 µM in the experiment on CCRF-CEM leukemia; over 100 µM in the experiment with COLO 205 colon; 86.1 µM in the experiment on BT-549 breast; 72.3 µM in the experiment with SK-OV-3 ovarian; 64.2 µM in the experiment with HS 578T breast; 61.4 µM in the experiment on 786-0 renal. Also, the results for the TGI in the experiment with EKVX NSCLC and in the experiment with SF-539 CNS were over 100 µM and 54.9 µM, respectively.

In the case of `CCCN(CCC)c1ccc(/C=N/NC(=O)c2cccnc2)c(C)c1`, the GI50 with CCRF-CEM leukemia was 16.4 µM; in the experiment on COLO 205 colon, 14.5 µM; in the experiment with BT-549 breast, 15.2 µM; in the experiment with SK-OV-3 ovarian, 18.1 µM; in the experiment on HS 578T breast, 13.9 µM; with 786-0 renal, 18.6 µM. Further, the GI50 is 13.5 µM in the experiment on EKVX NSCLC and 13.8 µM in the experiment with SF-539 CNS. Also, the TGI stood at 52.3 µM with CCRF-CEM leukemia; 27.6 µM with COLO 205 colon; 29.3 µM with BT-549 breast; 46.9 µM in the experiment on SK-OV-3 ovarian; 48.2 µM in the experiment with HS 578T breast; 42.2 µM with 786-0 renal. Besides, the TGI in the experiment on EKVX NSCLC amounted to 37.2 µM; in the experiment on SF-539 CNS it was 29.3 µM.

On to `CC[C@]12CN3CCc4c([nH]c5ccccc45)[C@@](C(=O)OC)(c4cc5c(cc4OC)N(C)[C@H]4[C@@](O)(C(=O)OC)[C@H](OC(C)=O)[C@]6(CC)C=CCN7CC[C@]54[C@@H]76)CC(C3)[C@H]1O2` (stereo not given in full), for which the GI50 in the experiment with CCRF-CEM leukemia is 0.116 µM; in the experiment with COLO 205 colon it was 0.092 µM; with BT-549 breast it was 0.343 µM; in the experiment on 786-0 renal, 1.3 µM; in the experiment with EKVX NSCLC, 0.256 µM; with SF-539 CNS, 0.128 µM. In addition, the TGI with CCRF-CEM leukemia is over 50 µM; in the experiment on COLO 205 colon, 1.03 µM and 0.387 µM; in the experiment on SK-OV-3 ovarian, over 100 µM; in the experiment on HS 578T breast it was 72.3 µM; in the experiment with 786-0 renal it was over 100 µM; in the experiment with EKVX NSCLC it was over 100 µM. Moreover, in the experiment on SF-539 CNS, the TGI was 1.8 µM and 9.39 µM.

Take `O=c1[nH]c(-c2ccc(Cl)c(Cl)c2)cn1-c1ccc(Cl)cc1`: the GI50 is 40.3 µM in the experiment on CCRF-CEM leukemia; 40.3 µM with COLO 205 colon; 37.7 µM in the experiment on BT-549 breast; 19.9 µM with SK-OV-3 ovarian; 17.2 µM with HS 578T breast; 20.7 µM in the experiment on 786-0 renal. In addition, the GI50 in the experiment with EKVX NSCLC is 35.4 µM; in the experiment on SF-539 CNS it was 20.1 µM. Moreover, the TGI with CCRF-CEM leukemia is over 100 µM; in the experiment on COLO 205 colon it was over 100 µM; in the experiment with BT-549 breast it was over 100 µM; with SK-OV-3 ovarian, 41.7 µM; with HS 578T breast, 51.8 µM; in the experiment with 786-0 renal, 43.9 µM. Moreover, the TGI was over 100 µM in the experiment with EKVX NSCLC and 54.2 µM in the experiment with SF-539 CNS.

On to `CCOc1ccc(-c2nc3ccc(-c4nc5ccc(N6CCN(C)CC6)cc5[nH]4)cc3[nH]2)cc1`, for which the GI50 in the experiment on CCRF-CEM leukemia was 0.316 µM; in the experiment with COLO 205 colon it was 0.117 µM; in the experiment on BT-549 breast it was 1.16 µM; with SK-OV-3 ovarian it was 0.379 µM and 0.478 µM; in the experiment with HS 578T breast, 0.476 µM; in the experiment with 786-0 renal, 0.527 µM and 0.198 µM. In addition, the GI50 with EKVX NSCLC was 0.658 µM; in the experiment on SF-539 CNS, 0.689 µM. Besides, the TGI in the experiment on CCRF-CEM leukemia was 1.87 µM; in the experiment on COLO 205 colon it was 1.26 µM; with BT-549 breast, 2.46 µM; with SK-OV-3 ovarian, 1.84 µM and 1.86 µM; in the experiment with HS 578T breast, 2.52 µM; with 786-0 renal, 1.57 µM and 0.809 µM. Also, the TGI in the experiment on EKVX NSCLC is 3.1 µM; in the experiment on SF-539 CNS, 2 µM.

As to `CCn1nc(C2CCN(C(=O)CCO)CC2)nc1-c1cnc(N)c(-c2nnc(C(C)(C)C)o2)n1`, the GI50 was 18.2 µM in the experiment on CCRF-CEM leukemia; 2.85 µM in the experiment on COLO 205 colon; 7.28 µM with BT-549 breast; 0.286 µM with SK-OV-3 ovarian; 0.836 µM in the experiment on HS 578T breast; 3.11 µM with 786-0 renal. In addition, the figures for the GI50 in the experiment on EKVX NSCLC and in the experiment on SF-539 CNS were 6.69 µM and 5.74 µM, respectively. Besides, the TGI in the experiment with CCRF-CEM leukemia is over 100 µM; with COLO 205 colon, 21.5 µM; in the experiment on BT-549 breast, over 100 µM; in the experiment with SK-OV-3 ovarian, 2.74 µM; in the experiment with HS 578T breast, 57 µM; in the experiment on 786-0 renal, over 100 µM. For the same molecule, the TGI in the experiment with EKVX NSCLC and with SF-539 CNS was over 100 µM each time.

For `CCCCN(CCCC)P(=O)(Oc1ccccc1)Oc1ccccc1`, the GI50 in the experiment on CCRF-CEM leukemia is 8.35 µM; with COLO 205 colon it was 11.3 µM; with BT-549 breast, 14.9 µM; in the experiment on SK-OV-3 ovarian, 14.9 µM; with HS 578T breast it was 6.6 µM; in the experiment on 786-0 renal, 12.3 µM. The GI50 in the experiment with EKVX NSCLC was 3.39 µM; with SF-539 CNS it was 14 µM. Besides, the TGI in the experiment on CCRF-CEM leukemia was found to be 59.3 µM; in the experiment on COLO 205 colon it was 26.7 µM; with BT-549 breast it was 28.3 µM; with SK-OV-3 ovarian, 33.6 µM; in the experiment on HS 578T breast it was 24.8 µM; in the experiment with 786-0 renal, 25.2 µM. For the same molecule, the TGI with EKVX NSCLC was found to be 17.2 µM; in the experiment on SF-539 CNS it was 28.6 µM.

In the case of `c1cc(OCCN2CCCC2)ccc1CNc1ccc2nc(CCC3CCCCC3)[nH]c2c1`, the GI50 in the experiment with CCRF-CEM leukemia is 1.47 µM; in the experiment on COLO 205 colon it was 1.7 µM; in the experiment on BT-549 breast, 1.56 µM; in the experiment with SK-OV-3 ovarian, 2.15 µM; with HS 578T breast, 1.62 µM; in the experiment on 786-0 renal, 1.57 µM. Also, the GI50 in the experiment with EKVX NSCLC was 1.86 µM; with SF-539 CNS, 1.51 µM. Moreover, the TGI in the experiment on CCRF-CEM leukemia was 6.9 µM; with COLO 205 colon, 3.35 µM; in the experiment on BT-549 breast, 3.17 µM; with SK-OV-3 ovarian it was 4.5 µM; in the experiment with HS 578T breast it was 4.53 µM; in the experiment on 786-0 renal, 3.27 µM. Also, the TGI with EKVX NSCLC was 6.51 µM; in the experiment on SF-539 CNS, 3 µM.

As for `COc1cc2c(cc1OC)[C@@H]1C(=O)c3ccc4c(c3O[C@@H]1CO2)C[C@H](C(C)C)O4`, the GI50 in the experiment on CCRF-CEM leukemia is 5.41 µM; in the experiment with COLO 205 colon, 6.19 µM; in the experiment on BT-549 breast it was 0.279 µM; in the experiment with SK-OV-3 ovarian, 14.4 µM; in the experiment with HS 578T breast it was 8.15 µM; in the experiment on 786-0 renal, 5.6 µM. Further, the GI50 in the experiment with EKVX NSCLC is 0.239 µM; in the experiment with SF-539 CNS, 15 µM. Further, the TGI in the experiment on CCRF-CEM leukemia was over 100 µM; with COLO 205 colon it was 20.8 µM; with BT-549 breast it was 20.8 µM; in the experiment on SK-OV-3 ovarian, over 81.8 µM; with HS 578T breast it was over 46.6 µM; with 786-0 renal, over 79.8 µM. Further, the TGI in the experiment with EKVX NSCLC is over 48.2 µM; in the experiment with SF-539 CNS, over 53.4 µM.

As to `COc1ccc(C(=O)/C=C/c2cc(-c3ccc(OC)c(OC)c3)n[nH]2)cc1OC`, the GI50 in the experiment on CCRF-CEM leukemia is 0.364 µM; in the experiment on COLO 205 colon, 1.55 µM; in the experiment on BT-549 breast it was 1.44 µM; in the experiment with SK-OV-3 ovarian it was 3.13 µM; in the experiment on HS 578T breast it was 3.76 µM; with 786-0 renal it was 1.81 µM. Also, the GI50 in the experiment with SF-539 CNS was 0.525 µM. The TGI in the experiment with CCRF-CEM leukemia was 5.52 µM; in the experiment with COLO 205 colon, 3.1 µM; with BT-549 breast it was 2.92 µM; in the experiment on SK-OV-3 ovarian it was 33.3 µM; in the experiment with HS 578T breast it was over 100 µM; in the experiment with 786-0 renal, 5.14 µM. Further, the TGI with SF-539 CNS turned out to be 2.54 µM.

Turning to `O=C(COc1ccccc1)NNc1ccccc1`, the GI50 with CCRF-CEM leukemia was 8.18 µM; in the experiment on COLO 205 colon, 17.6 µM and 11.9 µM; in the experiment on BT-549 breast, 90.7 µM; in the experiment on SK-OV-3 ovarian, 254 µM; in the experiment with HS 578T breast it was 98.3 µM; in the experiment on 786-0 renal it was > 68.5 µM and 66.1 µM. The GI50 with SF-539 CNS was 18.1 µM and 9.52 µM. The TGI in the experiment on COLO 205 colon is > 86.6 µM and 197 µM; in the experiment on BT-549 breast, over 300 µM; in the experiment on SK-OV-3 ovarian it was over 300 µM; with HS 578T breast it was over 300 µM; in the experiment on 786-0 renal, over 300 µM; in the experiment on SF-539 CNS, 55.1 µM and 37.6 µM.
